Measurements: EP0726263A2, “Herbicidal (1,3,4)oxadiazoles and thiadiazoles” (American Cyanamid Company, priority 1995, dated 1996)

How the values were obtained:
Format in all cases: in vivo
Papaver rhoeas [1] = experiment: Herbicidal activity, postemergence test; settings: post; sprayed onto seedling plants, 800 g of active material per hectare; evaluated 2 weeks after treatment
Description: (§1) To evaluate their herbicidal activity, compounds according to the invention are tested using a representative range of plants: TRZAW Triticum aestivum HORVW Hordeum vulgare ZEAMX Zea mays GOSHI Gossypium hirsutum HELAN Helianthus annuus GLYMA Glycine max ALOMY Alopecurus myosuroides SETVI Setaria viridis ECHCG Echinochloa crus-galli GALAP Galium aparine STEME Stellaria media VERPE Veronica persica VIOAR Viola arvensis IPOHE Ipomoea hederacea LAMPU Lamium purpureum PAPRH Papaver rhoeas MATIN Matricaria inodora AMARE Amaranthus retroflexus ABUTH Abutilon theophrasti AMBEL Ambrosia artemisifolia CHEAL Chenopodium album
(§2) The tests fall into two categories, preemergence and postemergence. The preemergence tests involve spraying a liquid formulation of the compound onto the soil in which the seeds have recently been sown. The postemergence tests involve spraying a liquid formulation of the compound onto seedling plants.
(§3) The soil used in the tests is a prepared horticultural loam.
(§4) The formulations used in the tests are prepared from solutions of the test compounds in acetone containing 0.4% by weight of an alkylphenol/ethylene oxide condensate available under the trade mark TRITON X-155. These acetone solutions are diluted with water and the resulting formulations applied at dosage levels corresponding to 800 g of active material per hectare in a volume equivalent to 900 litres per hectare.
(§5) In the preemergence tests untreated sown soil and in the postemergence tests untreated soil bearing seedling plants are used as controls.
(§6) Results of herbicide evaluation are expressed on a rating scale (0-9). The scale is based upon a visual observation of plant stand, vigor, malformation, size, chlorosis, and general plant appearance as compared to a control. Preemergence and postemergence treatments are evaluated at 3 and 2 weeks after treatment, respectively.

Zea mays [2] = experiment: Herbicidal activity, postemergence test; settings: post; sprayed onto seedling plants, 800 g of active material per hectare; evaluated 2 weeks after treatment
Description: as §1, §2, §3, §4, §5, §6

Gossypium hirsutum [3] = experiment: Herbicidal activity, postemergence test; settings: post; sprayed onto seedling plants, 800 g of active material per hectare; evaluated 2 weeks after treatment
Description: as §1, §2, §3, §4, §5, §6

Stellaria media [4] = experiment: Herbicidal activity, postemergence test; settings: post; sprayed onto seedling plants, 800 g of active material per hectare; evaluated 2 weeks after treatment
Description: as §1, §2, §3, §4, §5, §6

Triticum aestivum [5] = experiment: Herbicidal activity, postemergence test; settings: post; sprayed onto seedling plants, 800 g of active material per hectare; evaluated 2 weeks after treatment
Description: as §1, §2, §3, §4, §5, §6

Alopecurus myosuroides [6] = experiment: Herbicidal activity, postemergence test; settings: post; sprayed onto seedling plants, 800 g of active material per hectare; evaluated 2 weeks after treatment
Description: as §1, §2, §3, §4, §5, §6

Hordeum vulgare [7] = experiment: Herbicidal activity, postemergence test; settings: post; sprayed onto seedling plants, 800 g of active material per hectare; evaluated 2 weeks after treatment
Description: as §1, §2, §3, §4, §5, §6

Ambrosia artemisifolia [8] = experiment: Herbicidal activity, postemergence test; settings: post; sprayed onto seedling plants, 800 g of active material per hectare; evaluated 2 weeks after treatment
Description: as §1, §2, §3, §4, §5, §6

Abutilon theophrasti [9] = experiment: Herbicidal activity, postemergence test; settings: post; sprayed onto seedling plants, 800 g of active material per hectare; evaluated 2 weeks after treatment
Description: as §1, §2, §3, §4, §5, §6

Galium aparine [10] = experiment: Herbicidal activity, postemergence test; settings: post; sprayed onto seedling plants, 800 g of active material per hectare; evaluated 2 weeks after treatment
Description: as §1, §2, §3, §4, §5, §6

Ipomoea hederacea [11] = experiment: Herbicidal activity, postemergence test; settings: post; sprayed onto seedling plants, 800 g of active material per hectare; evaluated 2 weeks after treatment
Description: as §1, §2, §3, §4, §5, §6

Glycine max [12] = experiment: Herbicidal activity, postemergence test; settings: post; sprayed onto seedling plants, 800 g of active material per hectare; evaluated 2 weeks after treatment
Description: as §1, §2, §3, §4, §5, §6

Matricaria inodora [13] = experiment: Herbicidal activity, postemergence test; settings: post; sprayed onto seedling plants, 800 g of active material per hectare; evaluated 2 weeks after treatment
Description: as §1, §2, §3, §4, §5, §6

Setaria viridis [14] = experiment: Herbicidal activity, postemergence test; settings: post; sprayed onto seedling plants, 800 g of active material per hectare; evaluated 2 weeks after treatment
Description: as §1, §2, §3, §4, §5, §6

Lamium purpureum [15] = experiment: Herbicidal activity, postemergence test; settings: post; sprayed onto seedling plants, 800 g of active material per hectare; evaluated 2 weeks after treatment
Description: as §1, §2, §3, §4, §5, §6

Veronica persica [16] = experiment: Herbicidal activity, postemergence test; settings: post; sprayed onto seedling plants, 800 g of active material per hectare; evaluated 2 weeks after treatment
Description: as §1, §2, §3, §4, §5, §6

Amaranthus retroflexus [17] = experiment: Herbicidal activity, postemergence test; settings: post; sprayed onto seedling plants, 800 g of active material per hectare; evaluated 2 weeks after treatment
Description: as §1, §2, §3, §4, §5, §6

Chenopodium album [18] = experiment: Herbicidal activity, postemergence test; settings: post; sprayed onto seedling plants, 800 g of active material per hectare; evaluated 2 weeks after treatment
Description: as §1, §2, §3, §4, §5, §6

Papaver rhoeas [19] = experiment: Herbicidal activity, preemergence test; settings: pre; sprayed onto soil, 800 g of active material per hectare; evaluated 3 weeks after treatment
Description: as §1, §2, §3, §4, §5, §6

Zea mays [20] = experiment: Herbicidal activity, preemergence test; settings: pre; sprayed onto soil, 800 g of active material per hectare; evaluated 3 weeks after treatment
Description: as §1, §2, §3, §4, §5, §6

Gossypium hirsutum [21] = experiment: Herbicidal activity, preemergence test; settings: pre; sprayed onto soil, 800 g of active material per hectare; evaluated 3 weeks after treatment
Description: as §1, §2, §3, §4, §5, §6

Stellaria media [22] = experiment: Herbicidal activity, preemergence test; settings: pre; sprayed onto soil, 800 g of active material per hectare; evaluated 3 weeks after treatment
Description: as §1, §2, §3, §4, §5, §6

Triticum aestivum [23] = experiment: Herbicidal activity, preemergence test; settings: pre; sprayed onto soil, 800 g of active material per hectare; evaluated 3 weeks after treatment
Description: as §1, §2, §3, §4, §5, §6

Alopecurus myosuroides [24] = experiment: Herbicidal activity, preemergence test; settings: pre; sprayed onto soil, 800 g of active material per hectare; evaluated 3 weeks after treatment
Description: as §1, §2, §3, §4, §5, §6

Hordeum vulgare [25] = experiment: Herbicidal activity, preemergence test; settings: pre; sprayed onto soil, 800 g of active material per hectare; evaluated 3 weeks after treatment
Description: as §1, §2, §3, §4, §5, §6

Ambrosia artemisifolia [26] = experiment: Herbicidal activity, preemergence test; settings: pre; sprayed onto soil, 800 g of active material per hectare; evaluated 3 weeks after treatment
Description: as §1, §2, §3, §4, §5, §6

Abutilon theophrasti [27] = experiment: Herbicidal activity, preemergence test; settings: pre; sprayed onto soil, 800 g of active material per hectare; evaluated 3 weeks after treatment
Description: as §1, §2, §3, §4, §5, §6

Galium aparine [28] = experiment: Herbicidal activity, preemergence test; settings: pre; sprayed onto soil, 800 g of active material per hectare; evaluated 3 weeks after treatment
Description: as §1, §2, §3, §4, §5, §6

Ipomoea hederacea [29] = experiment: Herbicidal activity, preemergence test; settings: pre; sprayed onto soil, 800 g of active material per hectare; evaluated 3 weeks after treatment
Description: as §1, §2, §3, §4, §5, §6

Glycine max [30] = experiment: Herbicidal activity, preemergence test; settings: pre; sprayed onto soil, 800 g of active material per hectare; evaluated 3 weeks after treatment
Description: as §1, §2, §3, §4, §5, §6

Matricaria inodora [31] = experiment: Herbicidal activity, preemergence test; settings: pre; sprayed onto soil, 800 g of active material per hectare; evaluated 3 weeks after treatment
Description: as §1, §2, §3, §4, §5, §6

Setaria viridis [32] = experiment: Herbicidal activity, preemergence test; settings: pre; sprayed onto soil, 800 g of active material per hectare; evaluated 3 weeks after treatment
Description: as §1, §2, §3, §4, §5, §6

Lamium purpureum [33] = experiment: Herbicidal activity, preemergence test; settings: pre; sprayed onto soil, 800 g of active material per hectare; evaluated 3 weeks after treatment
Description: as §1, §2, §3, §4, §5, §6

Veronica persica [34] = experiment: Herbicidal activity, preemergence test; settings: pre; sprayed onto soil, 800 g of active material per hectare; evaluated 3 weeks after treatment
Description: as §1, §2, §3, §4, §5, §6

Amaranthus retroflexus [35] = experiment: Herbicidal activity, preemergence test; settings: pre; sprayed onto soil, 800 g of active material per hectare; evaluated 3 weeks after treatment
Description: as §1, §2, §3, §4, §5, §6

Chenopodium album [36] = experiment: Herbicidal activity, preemergence test; settings: pre; sprayed onto soil, 800 g of active material per hectare; evaluated 3 weeks after treatment
Description: as §1, §2, §3, §4, §5, §6

SMILES	PAPRH control rating (0-9) (Papaver rhoeas [1])	ZEAMX control rating (0-9) (Zea mays [2])	GOSHI control rating (0-9) (Gossypium hirsutum [3])	STEME control rating (0-9) (Stellaria media [4])	TRZAW control rating (0-9) (Triticum aestivum [5])	ALOMY control rating (0-9) (Alopecurus myosuroides [6])	HORVW control rating (0-9) (Hordeum vulgare [7])	AMBEL control rating (0-9) (Ambrosia artemisifolia [8])	ABUTH control rating (0-9) (Abutilon theophrasti [9])	GALAP control rating (0-9) (Galium aparine [10])	IPOHE control rating (0-9) (Ipomoea hederacea [11])	GLXMA control rating (0-9) (Glycine max [12])	MATIN control rating (0-9) (Matricaria inodora [13])	SETVI control rating (0-9) (Setaria viridis [14])	LAMPU control rating (0-9) (Lamium purpureum [15])	VERPE control rating (0-9) (Veronica persica [16])	AMARE control rating (0-9) (Amaranthus retroflexus [17])	CHEAL control rating (0-9) (Chenopodium album [18])	PAPRH control rating (0-9) (Papaver rhoeas [19])	ZEAMX control rating (0-9) (Zea mays [20])	also measured
O=C(NCc1cccs1)c1nnc(-c2ccc(F)cc2)o1 [Example 8]	3 (moderate effect)	0 (no effect)	0 (no effect)	5 (definite injury)	0 (no effect)	0 (no effect)	0 (no effect)	3 (moderate effect)	3 (moderate effect)	0 (no effect)	0 (no effect)	0 (no effect)	2 (slight effect)	0 (no effect)	0 (no effect)	4 (injury)	8 (approaching complete kill)	4 (injury)	9 (complete kill)	2 (slight effect)	GOSHI control rating (0-9) (Gossypium hirsutum [21]): 2 (slight effect); STEME control rating (0-9) (Stellaria media [22]): 7 (good herbicidal effect); TRZAW control rating (0-9) (Triticum aestivum [23]): 0 (no effect); ALOMY control rating (0-9) (Alopecurus myosuroides [24]): 0 (no effect); HORVW control rating (0-9) (Hordeum vulgare [25]): 0 (no effect); AMBEL control rating (0-9) (Ambrosia artemisifolia [26]): 3 (moderate effect); ABUTH control rating (0-9) (Abutilon theophrasti [27]): 0 (no effect); GALAP control rating (0-9) (Galium aparine [28]): 0 (no effect); IPOHE control rating (0-9) (Ipomoea hederacea [29]): 0 (no effect); GLXMA control rating (0-9) (Glycine max [30]): 2 (slight effect); MATIN control rating (0-9) (Matricaria inodora [31]): 5 (definite injury); SETVI control rating (0-9) (Setaria viridis [32]): 3 (moderate effect); LAMPU control rating (0-9) (Lamium purpureum [33]): 0 (no effect); VERPE control rating (0-9) (Veronica persica [34]): 7 (good herbicidal effect); AMARE control rating (0-9) (Amaranthus retroflexus [35]): 9 (complete kill); CHEAL control rating (0-9) (Chenopodium album [36]): 5 (definite injury)
O=C(NCc1ccccc1)c1nnc(-c2ccc(F)cc2)o1 [Example 9]	0 (no effect)	0 (no effect)	0 (no effect)	0 (no effect)	0 (no effect)	0 (no effect)	0 (no effect)	0 (no effect)	3 (moderate effect)	0 (no effect)	0 (no effect)	0 (no effect)	0 (no effect)	0 (no effect)	0 (no effect)	0 (no effect)	0 (no effect)	0 (no effect)	6 (herbicidal effect)	0 (no effect)	GOSHI control rating (0-9) (Gossypium hirsutum [21]): 0 (no effect); STEME control rating (0-9) (Stellaria media [22]): 0 (no effect); TRZAW control rating (0-9) (Triticum aestivum [23]): 0 (no effect); ALOMY control rating (0-9) (Alopecurus myosuroides [24]): 0 (no effect); HORVW control rating (0-9) (Hordeum vulgare [25]): 0 (no effect); AMBEL control rating (0-9) (Ambrosia artemisifolia [26]): 0 (no effect); ABUTH control rating (0-9) (Abutilon theophrasti [27]): 0 (no effect); GALAP control rating (0-9) (Galium aparine [28]): 0 (no effect); IPOHE control rating (0-9) (Ipomoea hederacea [29]): 0 (no effect); GLXMA control rating (0-9) (Glycine max [30]): 1 (trace effect); MATIN control rating (0-9) (Matricaria inodora [31]): 0 (no effect); SETVI control rating (0-9) (Setaria viridis [32]): 3 (moderate effect); LAMPU control rating (0-9) (Lamium purpureum [33]): 0 (no effect); VERPE control rating (0-9) (Veronica persica [34]): 7 (good herbicidal effect); AMARE control rating (0-9) (Amaranthus retroflexus [35]): 0 (no effect); CHEAL control rating (0-9) (Chenopodium album [36]): 0 (no effect)
